Peptide text beside a SMILES is read from it.
Legend:
[1] = system: MDR Salmonella enterica serovar Typhimurium DT193 strain 1434 (SX231); test: Growth curve assay (automated reader, OD600) with isolate SX231; assay type: cell-based; conditions: 20 µM peptide, LB broth, 24 h growth curve
[2] = system: Swiss-Webster mice; test: Mouse study of in vivo cytotoxic effects; conditions: single intraperitoneal dose 100 µg (~ 4 mg/kg) in PBS, female Swiss-Webster mice, 5 per cage, 2-week observation
Description: To determine whether NK-lysin peptides show in vivo cytotoxic effects, a mouse study was conducted. Briefly, thirty 5–6 weeks old female Swiss-Webster mice (Envigo, Indianapolis, IN) were housed in groups in six individual cages (5 mice per cage) in ABSL2 facilities with ad libitum access to food and water in a 12-h light:dark cycle. After 1 week of acclimation, mice were intraperitoneally injected with a single dose of 100 µg of NK-lysin peptides (NK1, NK2A, NK2B, NK2C, or Sc-NK2A, ~ 4 mg/kg of body weight) in PBS (1 mL). Mice injected with PBS (1 mL) served as a negative control for the study. Mice were daily observed for any signs of toxicity and were euthanized 2 weeks post peptide administration.

[3] = system: Salmonella SX238 outer- and inner-membranes; test: Transmission electron microscopy of peptide-treated bacteria; assay type: cell-based, Salmonella enterica serovar I 4,[5],12:i:-; conditions: 20 µM peptide, 1 h at 37 °C, ~1 × 10^7 CFU/well in PBS
Description: Morphological changes of bacteria following incubation with NK2A and Sc-NK2A peptides were studied by TEM. An overnight culture of Salmonella (isolate SX238) was centrifuged and resuspended in PBS. One hundred microliters of bacterial suspension were placed in a Honeycomb plate (~ 1 × 10^7 CFU/well) and NK2A, Sc-NK2A (20 µM), and PBS were added and incubated at 37 °C with continuous shaking for 1 h. The bacterial suspensions were mixed with an equal volume of 3% glutaraldehyde in 0.1 M cacodylate buffer (pH 7.4) and processed for TEM as described before. Sections were examined with a FEI Tecnai G2 Biotwin (FEI Co., Hillboro, OR) TEM and images were taken with Advanced Microscopy Technologies (AMT Inc., Danvers, […]) imaging camera.

[4] = system: Salmonella enterica serovar Typhimurium isolate UK-1 (SB377, non-MDR); test: Growth curve assay (automated reader, OD600) with isolate SB377; assay type: cell-based; conditions: for growth inhibition activity on SB377 at highest tested concentration: up to 20 µM peptide, 24 h growth curve; for time at which bacteria recovered and grew after initial inhibition: SB377, LB broth
Description: (§1) Overnight cultures of a MDR Salmonella outbreak isolate (SX238) and one non-MDR Salmonella isolate (SB377) were diluted 1:1000 in LB broth to obtain approximately 1 × 10^6 colony forming units per milliliter (CFU/mL). One hundred microliters of each diluted culture were transferred into honeycomb® 100-well plates (~ 1 × 10^5 CFU/well) (Growth Curves USA, Piscataway, NJ). Bovine NK-lysin peptides (NK1, NK2A, NK2B, and NK2C) were added at the final peptide concentrations of 20, 10, 5, 3.5, 2 µM in PBS (total volume = 20 µL) with a final bacterial-peptide volume of 120 µL/well. The plates were covered with lids and placed in an automated growth curve reader (Bioscreen C; Growth Curves USA, Piscataway, NJ) which was programmed for continuous shaking at 37 °C, and optical density readings at 600 nm (OD600) were recorded every hour for 24 h. […] The optical density data were analyzed, and growth curve graphs for each isolate were generated using MS Excel. […] Twenty-four-hour growth curve assays for Salmonella isolate SX238 were repeated at different bacterial CFU (~ 1 × 10^5, 1 × 10^6, 1 × 10^7, and 1 × 10^8 CFU/mL) with NK2A (5 µM and 10 µM). Sc-NK2A was included as a control for the assay.

[5] = system: Salmonella SX238; test: LIVE/DEAD BacLight staining, confocal laser scanning microscopy; assay type: cell-based, Salmonella enterica serovar I 4,[5],12:i:-; conditions: 5 µM peptide
Description: The viabilities of bacteria following incubation with NK2A and Sc-NK2A were determined using culture-independent (function of the membrane integrity of the bacteria) staining technique by using LIVE/DEAD™ BacLight™ bacterial viability kit (for microscopy) as described previously. Bacteria in each treatment was visualized using a Nikon A1R + laser scanning confocal microscope (Nikon Instruments, Melville, NY) as described previously. Images were obtained using plan Apo 60 × objective lens (oil) at numerical aperture 1.4. Final figures were prepared using Adobe Photoshop Elements 11.

[6] = system: MDR Salmonella outbreak isolate SX238 cytoplasmic membrane; test: Propidium iodide (PI) uptake assay; assay type: cell-based, Salmonella enterica serovar I 4,[5],12:i:-
Description: The kinetics of NK2A-induced damage to Salmonella cell membranes were evaluated using PI uptake assay as described previously. Briefly, an overnight culture of MDR Salmonella outbreak isolate SX238 was centrifuged, washed with PBS, and resuspended in PBS. Ninety microliters of bacterial suspension was transferred to a 96-well opaque plate (~ 1 × 10^7 CFU/well), mixed with 10 µL of PI (final concentration = 3 µM) and incubated at 37 °C for 5 min. PBS, polymyxin B (2, 4, 25, 50 and 100 µg/mL), NK2A or Sc-NK2A (both at 2 and 5 µM) were added and PI fluorescent intensities in each well was continuously measured (15 s intervals, flex mode) using a FlexStation 3 multi-mode (fluorescent) microplate reader (Molecular Devices LLC., San Jose, CA) for up to 6 h. The excitation and emission wavelengths for PI was set up at 530 nm and 620 nm, respectively.

[7] = system: MDR Salmonella enterica serovar Heidelberg (SB395); test: Growth curve assay (automated reader, OD600) with isolate SB395; assay type: cell-based; conditions: 20 µM peptide, LB broth, 24 h growth curve
[8] = system: MDR Salmonella enterica serovar I 4,[5],12:i:- strain USDA15WA-1 (SX238); test: Growth curve assay (automated reader, OD600) with isolate SX238; assay type: cell-based; conditions: for growth inhibition activity on SX238 at highest tested concentration: up to 20 µM peptide, 24 h growth curve; for time at which bacteria recovered and grew after initial inhibition: SX238, LB broth
Description: as §1

[9] = system: Salmonella isolates (MDR and non-MDR); test: Growth curve assay, statements over all Salmonella isolates; assay type: cell-based; conditions: 24 h incubation in LB broth, MDR and non-MDR isolates
Description: as §1

With CC[C@H](C)[C@H](NC(=O)[C@H](CCSC)NC(=O)[C@H](CS)NC(=O)[C@H](CCCNC(=N)N)NC(=O)[C@H](CCC(=O)O)NC(=O)[C@H](CCCCN)NC(=O)[C@H](CCCCN)NC(=O)[C@H](CS)NC(=O)[C@H](CCCCN)NC(=O)[C@H](CO)NC(=O)[C@H](CCCCN)NC(=O)CNC(=O)[C@@H](NC(=O)[C@H](CC(C)C)NC(=O)[C@H](CCCNC(=N)N)NC(=O)[C@@H](NC(=O)[C@@H](NC(=O)[C@H](C)NC(=O)[C@H](CC(C)C)NC(=O)[C@H](CO)NC(=O)[C@H](CC(C)C)NC(=O)[C@H](CO)NC(=O)[C@@H](NC(=O)[C@H](Cc1ccccc1)NC(=O)[C@@H](N)CCSC)C(C)C)[C@@H](C)O)[C@@H](C)CC)[C@@H](C)O)C(=O)N[C@@H](CC(C)C)C(=O)N[C@@H](CCCCN)C(=O)N[C@@H](CCCNC(=N)N)C(=O)N[C@@H](CCCNC(=N)N)C(=O)N[C@H](C(=O)O)C(C)C [Sc-NK2A] (H-MFVSLSLATIRLTGKSKCKKERCMILKRRV-OH; N-terminus and C-terminus assumed) the “growth inhibition activity on SX231 at highest tested concentration” value [1] was “failed to show Salmonella growth inhibition activity”, the “signs of toxicity or death” value [2] was “did not show signs of toxicity or death” and the “ultrastructural changes to bacterial membranes” value [3] was “did not cause detectable damage to the bacterial membranes”. The “growth inhibition activity on SB377 at highest tested concentration” value ([4]; LB broth) was “failed to show Salmonella growth inhibition activity”, the “live/dead staining result (SYTO 9 / PI)” value [5] was “did not have detectable antimicrobial activity” and the PI uptake signal ([6]; 5 µM peptide, 30 min, ~1 × 10^7 CFU/well in PBS, 3 µM PI) was “did not show PI uptake signals”. The “growth inhibition activity on SB395 at highest tested concentration” value [7] was “failed to show Salmonella growth inhibition activity”, the “growth inhibition of SX238 at the lowest bacterial concentration” value ([8]; 10 µM peptide, 10^4 CFU/well) was “failed to inhibit bacterial growth” and the “growth inhibition activity on SX238 at highest tested concentration” value ([8]; LB broth) was “failed to show Salmonella growth inhibition activity”.
“TVIEAASKVCGKMGPLKGLCKSITKRFLRR [NK2B, 30-mer peptide corresponding to functional region helices 2-loop-3 of bovine NK-lysin NK2B]” was tested, and the “signs of toxicity or death” value [2] was “did not show signs of toxicity or death”, the “peptide concentration at which growth of SB377 was completely inhibited” value ([4]; LB broth, ~1 × 10^5 CFU/well, 37 °C, OD600 every hour for 24 h, tested 2-20 µM) was no less than 5 µM and the “concentrations able to inhibit growth of Salmonella during 24 h” value [9] was 3.5 to 5 µM. The “peptide concentration at which growth of SX238 was completely inhibited” value ([8]; LB broth, ~1 × 10^5 CFU/well, 37 °C, OD600 every hour for 24 h, tested 2-20 µM, at least three experiments) was no less than 5 µM.
“TVIEEASKVCSKMRLLKGLCKSIMKKFLRT [NK2C, 30-mer peptide corresponding to functional region helices 2-loop-3 of bovine NK-lysin NK2C]” was tested, and the “signs of toxicity or death” value [2] was “did not show signs of toxicity or death”, the “time at which bacteria recovered and grew after initial inhibition” value (shortened to “time … after initial inhibition”) ([4]; 10 µM peptide) was “approximately 7 h” and the “time … after initial inhibition” value ([4]; 20 µM peptide) was roughly 20 h. For the same molecule, the “time … after initial inhibition” value ([8]; 10 µM peptide) was “approximately 7 h” and the “time … after initial inhibition” value ([8]; 20 µM peptide) was roughly 20 h.
“VIIHVTSKVCSKMGLWSILCNQMMKKYLNR [NK1, 30-mer peptide corresponding to functional region helices 2-loop-3 of bovine NK-lysin NK1]” was tested, and the “signs of toxicity or death” value [2] was “did not show signs of toxicity or death”, the “growth inhibition activity on SB377 at highest tested concentration” value ([4]; LB broth) was “did not show any Salmonella SX238 and SB377 growth inhibition activity” and the “growth inhibition activity on SX238 at highest tested concentration” value ([8]; LB broth) was “did not show any Salmonella SX238 and SB377 growth inhibition activity”.
In the case of polymyxin B [reference compound], the PI uptake signal ([6]; polymyxin B 2-100 µg/mL, 6 h observation) is reported as “No PI uptake signal was observed” and the PI uptake signal ([6]; polymyxin B up to 100 µg/mL, 30 min observation) is reported as “No PI uptake signal was observed”.

— paper PMC8481502, “Bovine NK-lysin peptides exert potent antimicrobial activity against multidrug-resistant Salmonella outbreak isolates” (Scientific Reports, 2021)
